Measurements: patent publication EP4755886A1 (Chengdu Chipscreen Pharmaceutical Ltd., priority 2023, dated 2025)
pIC50: −log10 of the molar value.

Key:
MTAP^-/- HCT-116 cells = test: Cell proliferation (MTS), MTAP-/- HCT-116; type: cell-based, human; conditions: for Selectivity: HCT116 WT IC50 relative to HCT116 MTAP-/- IC50; for pIC50: Homo sapiens, 240 h, MTAP-/- HCT-116, 10 days with compound, MTS reading, read-out: IC50 HCT116 MTAP-/-
Text: The colon cancer cell strain HCT-116 (purchased from Nanjing Cobioer) was co-transfected with the gene editing tool CRISPR/Cas9 and sgRNA, and the MTAP^-/- HCT-116 cell strain with biallelic inactivation of MTAP was obtained by assays such as Western Blotting and Sanger sequencing. The MTAP^-/- HCT-116 cell strain was used for compound selectivity screening and evaluation based on the synergistic mechanism of MTAP deletion and PRMT5, including a symmetric dimethylarginine (SDMA) level test, a cell proliferation test, and the like.
On day 0, MTAP^-/- HCT-116 cells or wild-type HCT-116 cells were added to a 96-well cell culture plate (Corning, 3599) at 100 cells/well, and the plate was incubated in an incubator at 37 °C with 5% CO2. The compound was diluted in a 3-fold gradient with DMSO (Sigma, D5879) (initial concentration: 20 µM, 3-fold dilution, 8 concentration points in total). On day 1, the compound was diluted to multiple concentration points, and the cells were treated separately and incubated in the incubator at 37 °C with 5% CO2 for another 10 days. On Day 11, 20 µL of MTS (CellTiter 96® AQueous One Solution Cell Proliferation Assay) (Promega, G3581) was added to each well. […] In the formula, Y represents the inhibition rate, X represents the logarithm of the compound concentration, Top represents the maximum response (the inhibition rate at the maximum compound concentration), Bottom represents the baseline response (the inhibition rate where the compound concentration was 0), Hill Slope represents the slope of the IC50 curve, and IC50 represents the half maximal inhibitory concentration.

wild-type HCT-116 cells = test: Cell proliferation (MTS), wild-type HCT-116; type: cell-based; conditions: Homo sapiens, 240 h; wild-type HCT-116, 10 days with compound, MTS reading; read-out: IC50 HCT116 WT
Protocol: MTAP^-/- HCT-116 and wild-type HCT-116 cell strains were cultured in complete medium McCoy's 5A (Gibco, 16600082)/10% FBS (Gibco, 10099141C)/1% p/s (Gibco, 15140122) to evaluate the enhanced inhibitory effect of the compounds against the proliferation selectivity of MTAP^-/- HCT-116 cells. On day 0, MTAP^-/- HCT-116 cells or wild-type HCT-116 cells were added to a 96-well cell culture plate (Corning, 3599) at 100 cells/well, and the plate was incubated in an incubator at 37 °C with 5% CO2. The compound was diluted in a 3-fold gradient with DMSO (Sigma, D5879) (initial concentration: 20 µM, 3-fold dilution, 8 concentration points in total). On day 1, the compound was diluted to multiple concentration points, and the cells were treated separately and incubated in the incubator at 37 °C with 5% CO2 for another 10 days. On Day 11, 20 µL of MTS (CellTiter 96® AQueous One Solution Cell Proliferation Assay) (Promega, G3581) was added to each well. […] In the formula, Y represents the inhibition rate, X represents the logarithm of the compound concentration, Top represents the maximum response (the inhibition rate at the maximum compound concentration), Bottom represents the baseline response (the inhibition rate where the compound concentration was 0), Hill Slope represents the slope of the IC50 curve, and IC50 represents the half maximal inhibitory concentration. Table 1. IC50 (µM)

| Structure (SMILES) | Selectivity (MTAP^-/- HCT-116 cells) | pIC50 (MTAP^-/- HCT-116 cells) | pIC50 (wild-type HCT-116 cells) |
| --- | --- | --- | --- |
| Cc1ccc(C#Cc2ccc3c(c2)OC[C@H]3N(C)C(=O)c2cc3c4c(c(N)nc3cc2Cl)COC4)cn1 [Compound 58A, (S)-4-amino-7-chloro-N-methyl-N-(6-((6-methylpyridin-3-yl)ethynyl)-2,3-dihydrobenzofuran-3-yl)-1,3-dihydrofuro[3,4-c]quinoline-8-carboxamide] | 234 | 8.02 | 5.65 |
| CN(C(=O)c1cc2c(cc1F)nc(N)c1cnn(C)c12)[C@@H]1COc2cc(C#Cc3ccn(C)n3)ccc21 [Compound 21A, (S)-4-amino-7-fluoro-N,1-dimethyl-N-(6-((1-methyl-1H-pyrazol-3-yl)ethynyl)-2,3-dihydrobenzofuran-3-yl)-1H-pyrazolo[4,3-c]quinoline-8-carboxamide] | 86.3 | 8.57 | 6.63 |
| Cc1cn(C)nc1C#Cc1ccc2c(c1)OC[C@H]2N(C)C(=O)c1cc2c(cc1Cl)nc(N)c1cnn(C)c12 [Compound 81A, (S)-4-amino-7-chloro-N-(6-((1,4-dimethyl-1H-pyrazol-3-yl)ethynyl)-2,3-dihydrobenzofuran-3-yl)-N,1-dimethyl-1H-pyrazolo[4,3-c]quinoline-8-carboxamide] | 45 | 8.57 | 6.91 |
| CN(C(=O)c1cc2c3c(c(N)nc2cc1F)COC3)[C@@H]1COc2cc(C#Cc3cnc4n3CCCC4)ccc21 [Compound 80A, (S)-4-amino-7-fluoro-N-methyl-N-(6-((5,6,7,8-tetrahydroimidazo[1,2-a]pyridin-3-yl)ethynyl)-2,3-dihydrobenzofuran-3-yl)-1,3-dihydrofuro [3,4-c] quinoline-8-carbo xamide] | 251 | 8.22 | 5.82 |
| CN(C(=O)c1cc2c(cc1F)nc(N)c1cnn(C)c12)C1COc2cc(C#Cc3ccn(C)n3)ccc21 (stereo not drawn) [Compound 21, 4-amino-7-fluoro-N,1-dimethyl-N-(6-((1-methyl-1H-pyrazol-3-yl)ethynyl)-2,3-dihydrobenzofuran-3-yl)-1H-pyrazolo[4,3-c]quinoline-8-carboxamide] | 52 | 8.15 | 6.44 |
| CN(C(=O)c1cc2c(cc1F)nc(N)c1cnn(C)c12)C1COCc2cc(C#Cc3cnn(C)c3)ccc21 (stereo not drawn) [Compound 72, 4-amino-7-fluoro-N,1-dimethyl-N-(7-((1-methyl-1H-pyrazol-4-yl)ethynyl)isochroman-4-yl)-1H-pyrazolo[4,3-c]quinoline-8-carboxamide] | – | 8.22 | – |
| Cc1cc2nc(N)c3cnn(C)c3c2cc1C(=O)N(C)[C@@H]1COc2cc(C#Cc3cnn(C(F)F)c3)ccc21 [Compound 83A] | 62 | 9.00 | 7.21 |
| CCN(C(=O)c1ccc2nc(N)c3cnn(C)c3c2c1)C1COc2cc(C#Cc3cnn(C)c3)ccc21 (stereo not drawn) [Compound 7, 4-amino-N-ethyl-1-methyl-N-(6-((1-methyl-1H-pyrazol-4-yl)ethynyl)-2,3-dihydrobenzofuran-3-yl)-1H-pyrazolo[4,3-c]quinoline-8-carboxamide] | 110 | 8.27 | 6.23 |
| CN(C(=O)c1ccc2nc(N)c3cnn(C)c3c2c1)C1COc2cc(C#Cc3cnn(C)c3)ccc21 (stereo not drawn) [Compound 1, 4-amino-N,1-dimethyl-N-(6-((1-methyl-1H-pyrazol-4-yl)ethynyl)-2,3-dihydrobenzofuran-3-yl)-1H-pyrazolo[4,3-c]quinoline-8-carboxamide] | 140 | 7.89 | 5.74 |
| CN(C(=O)c1cc2c(cc1F)nc(N)c1cnn(C)c12)[C@@H]1COc2cc(C#Cc3cccnc3F)ccc21 [Compound 54A, (S)-4-amino-7-fluoro-N-(6-((2-fluoropyridin-3-yl)ethynyl)-2,3-dihydrobenzofuran-3-yl)-N,1-dimethyl-1H-pyrazolo[4,3-c]quinoline-8-carboxamide] | – | 8.26 | – |
| CN(C(=O)c1cc2c(cc1F)nc(N)c1cnn(C)c12)[C@@H]1COc2cc(C#Cc3ccc(C4CC4)nc3)ccc21 [Compound 77A, (S)-4-amino-N-(6-((6-cyclopropylpyridin-3-yl)ethynyl)-2,3-dihyrobenzofuran-3-yl)-7-fluoro-N,1-dimethyl-1H-pyrazolo[4,3-c]quinoline-8-carboxamide] | – | 7.96 | – |
| CCn1cc(C#Cc2ccc3c(c2)OCC3N(C)C(=O)c2cc3c(cc2Cl)nc(N)c2cnn(C)c23)cn1 (stereo not drawn) [Compound 15, 4-amino-7-chloro-N-(6-((1-ethyl-1H-pyrazol-4-yl)ethynyl)-2,3-dihydrobenzofuran-3-yl)-N,1-dimethyl-1H-pyrazolo[4,3-c]quinoline-8-carboxamide] | – | 8.32 | – |
| CC(C)n1cc(C#Cc2ccc3c(c2)OCC3N(C)C(=O)c2cc3c(cc2Cl)nc(N)c2cnn(C)c23)cn1 (stereo not drawn) [Compound 14, 4-amino-7-chloro-N-(6-((1-isopropyl-1H-pyrazol-4-yl)ethynyl)-2,3-dihydrobenzof uran-3-yl)-N,1-dimethyl-1H-pyrazolo[4,3-c]quinoline-8-carboxamide] | – | 8.05 | – |
| Cc1nn(C)cc1C#Cc1ccc2c(c1)OC[C@H]2N(C)C(=O)c1cc2c(cc1Cl)nc(N)c1cnn(C)c12 [Compound 26A, (S)-4-amino-7-chloro-N-(6-((1,3-dimethyl-1H-pyrazol-4-yl)ethynyl)-2,3-dihydrobenzofuran-3-yl)-N,1-dimethyl-1H-pyrazolo[4,3-c]quinoline-8-carboxamide] | – | 9.05 | – |
| Cc1nn(C)cc1C#Cc1ccc2c(c1)OCC2N(C)C(=O)c1cc2c(cc1Cl)nc(N)c1cnn(C)c12 (stereo not drawn) [Compound 26, 4-amino-7-chloro-N-(6-((1,3-dimethyl-1H-pyrazol-4-yl)ethynyl)-2,3-dihydrobenzofuran-3-yl)-N,1-dimethyl-1H-pyrazolo[4,3-c]quinoline-8-carboxamide] | – | 8.55 | – |
| CN(C(=O)c1cc2c3c(c(N)nc2cc1F)COC3)[C@@H]1COc2cc(C#Cc3cnn(C)c3)ccc21 [Compound 39A, (S)-4-amino-7-fluoro-N-methyl-N-(6-((1-methyl-1H-pyrazol-4-yl)ethynyl)-2,3-dihydrobenzofuran-3-yl)-1,3-dihydrofuro[3,4-c]quinoline-8-carboxamide] | – | 7.96 | – |
| CN(C(=O)c1cc2c3c(c(N)nc2cc1Cl)COC3)[C@@H]1COc2cc(C#Cc3cnn(C(F)F)c3)ccc21 [Compound 73A, (S)-4-amino-7-chloro-N-(6-((1-(difluoromethyl)-1H-pyrazol-4-yl)ethynyl)-2,3-dihydrobenzofuran-3-yl)-N-methyl-1,3-dihydrofuro[3,4-c]quinoline-8-carboxamide] | – | 7.96 | – |
| Cc1ncccc1C#Cc1ccc2c(c1)OC[C@H]2N(C)C(=O)c1cc2c(cc1Cl)nc(N)c1cnn(C)c12 [Compound 64A, (S)-4-amino-7-chloro-N,1-dimethyl-N-(6-((2-methylpyridin-3-yl)ethynyl)-2,3-dihydrobenzofuran-3-yl)-1H-pyrazolo[4,3-c]quinoline-8-carboxamide] | – | 8.52 | – |
| CCN(C(=O)c1cc2c(cc1Cl)nc(N)c1cnn(C)c12)C1COc2cc(C#Cc3cnn(C)c3)ccc21 (stereo not drawn) [Compound 28, 4-amino-7-chloro-N-ethyl-1-methyl-N-(6-((1-methyl-1H-pyrazol-4-yl)ethynyl)-2,3-dihydrobenzofuran-3-yl)-1H-pyrazolo[4,3-c]quinoline-8-carboxamide] | – | 8.64 | – |
| CN1CCn2c(C#Cc3ccc4c(c3)OC[C@H]4N(C)C(=O)c3cc4c(cc3Cl)nc(N)c3cnn(C)c34)cnc2C1 [Compound 51A, (S)-4-amino-7-chloro-N,1-dimethyl-N-(6-((7-methyl-5,6,7,8-tetrahydroimidazo[1,2-a]pyrazin-3-yl)ethynyl)-2,3-dihydrobenzofuran-3-yl)-1H-pyrazolo[4,3-c]quinoline-8-carboxamide] | – | 9.00 | – |
